Data published in PubChem BioAssay AID1963423 (Molecular Pharmacology Branch, DTP, NCI, 2024).

Tested on: 439559-082-T-J2-PDC complex spheroid growth
Test: Anticancer human tumor 439559-082-T-J2-PDC patient-derived colon adenocarcinoma cell line growth inhibition [Asc]
Conditions: for IC50: curve of first compound; for viability, T/C: stronger effect = lower value; active means viability on the fitted dose curve at most 10% of control; inactive means the rest
How it was run: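 Tumor cells were grown as multicellular spheroids with stromal HUVEC and mesenchymal stem cells and treated singly or in combination. Concentrations fell in half-log steps from the clinical Cmax, or from 10 microM where none was known.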

[1] = second compound 0.1 µM, first compound 0.0316 µM
[2] = second compound 0.1 µM, first compound 0.1 µM
[3] = second compound 0.316 µM, first compound 0.0316 µM
[4] = second compound 0.316 µM, first compound 0.1 µM
[5] = second compound 1 µM, first compound 0.0316 µM
[6] = second compound 1 µM, first compound 0.1 µM
[7] = second compound 3.16 µM, first compound 0.0316 µM
[8] = second compound 3.16 µM, first compound 0.1 µM
[9] = second compound 10 µM, first compound 0.0316 µM
[10] = second compound 10 µM, first compound 0.1 µM
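Further: spheroids exposed to agents for 7 days starting day 3 after seeding.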
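Wherever viability, T/C is given: percent of DMSO vehicle control viability with 100% = vehicle.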

Cc1nc(N2CCC3(CC2)COC(C)C3N)c(CO)nc1Sc1ccnc(N)c1Cl (configuration not stated) + CNC(C)C(=O)NC1CN(S(=O)(=O)c2cccc(S(=O)(=O)N3CCC4CCC(C(=O)NC(c5ccccc5)c5ccccc5)N4C(=O)C(NC(=O)C(C)NC)C3)c2)CCC2CCC(C(=O)NC(c3ccccc3)c3ccccc3)N2C1=O
2.27 µM: IC50 (second compound 1 µM)
> 3 µM: IC50 (second compound 0.00316 µM) | IC50 (second compound 0.01 µM) | IC50 (second compound 0.0316 µM) | IC50 (second compound 0.1 µM) | IC50 (second compound 0.316 µM)
inactive: viability, T/C (second compound 0.00316 µM, first compound 0.00949 µM) 98.2% | viability, T/C (second compound 0.00316 µM, first compound 0.03 µM) 91.5% | viability, T/C (second compound 0.00316 µM, first compound 0.0949 µM) 89.7% | viability, T/C (second compound 0.00316 µM, first compound 0.3 µM) 94% | viability, T/C (second compound 0.00316 µM, first compound 0.949 µM) 95.4% | viability, T/C (second compound 0.00316 µM, first compound 3 µM) 71.5% | viability, T/C (second compound 0.01 µM, first compound 0.00949 µM) 98.4% | viability, T/C (second compound 0.01 µM, first compound 0.03 µM) 104% | viability, T/C (second compound 0.01 µM, first compound 0.0949 µM) 95.3% | viability, T/C (second compound 0.01 µM, first compound 0.3 µM) 83% | viability, T/C (second compound 0.01 µM, first compound 0.949 µM) 87.3% | viability, T/C (second compound 0.01 µM, first compound 3 µM) 73.3% | viability, T/C (second compound 0.0316 µM, first compound 0.00949 µM) 104% | viability, T/C (second compound 0.0316 µM, first compound 0.03 µM) 98.8% | viability, T/C (second compound 0.0316 µM, first compound 0.0949 µM) 89.4% | viability, T/C (second compound 0.0316 µM, first compound 0.3 µM) 97.2% | viability, T/C (second compound 0.0316 µM, first compound 0.949 µM) 75.8% | viability, T/C (second compound 0.0316 µM, first compound 3 µM) 69.5% | viability, T/C (second compound 0.1 µM, first compound 0.00949 µM) 93.7% | viability, T/C (second compound 0.1 µM, first compound 0.03 µM) 96.7% | viability, T/C (second compound 0.1 µM, first compound 0.0949 µM) 95.5% | viability, T/C (second compound 0.1 µM, first compound 0.3 µM) 84.2% | viability, T/C (second compound 0.1 µM, first compound 0.949 µM) 81.3% | viability, T/C (second compound 0.1 µM, first compound 3 µM) 64.8% | viability, T/C (second compound 0.316 µM, first compound 0.00949 µM) 94.4% | viability, T/C (second compound 0.316 µM, first compound 0.03 µM) 88.1% | viability, T/C (second compound 0.316 µM, first compound 0.0949 µM) 79% | viability, T/C (second compound 0.316 µM, first compound 0.3 µM) 72.1% | viability, T/C (second compound 0.316 µM, first compound 0.949 µM) 67% | viability, T/C (second compound 0.316 µM, first compound 3 µM) 59.9% | viability, T/C (second compound 1 µM, first compound 0.00949 µM) 72.9% | viability, T/C (second compound 1 µM, first compound 0.03 µM) 76.8% | viability, T/C (second compound 1 µM, first compound 0.0949 µM) 69.3% | viability, T/C (second compound 1 µM, first compound 0.3 µM) 62.9% | viability, T/C (second compound 1 µM, first compound 0.949 µM) 66.6% | viability, T/C (second compound 1 µM, first compound 3 µM) 45%

Cn1ncnc1[C@H]1c2n[nH]c(=O)c3cc(F)cc(c23)N[C@@H]1c1ccc(F)cc1 + Cc1c(S(C)(=O)=O)c(-c2cc(F)cc(N3CCN(c4ccc(NS(=O)(=O)c5ccc(NC(CCN6CCC(C(=O)OCCCP(=O)(O)O)CC6)CSc6ccccc6)c(S(=O)(=O)C(F)(F)F)c5)cc4)CC3)c2)c(-c2ccc(Cl)cc2)n1C(C)C
> 0.1 µM: IC50 (second compound 0.1 µM) | IC50 (second compound 0.316 µM) | IC50 (second compound 1 µM) | IC50 (second compound 3.16 µM) | IC50 (second compound 10 µM)
inactive: viability, T/C (second compound 0.1 µM, first compound 0.000316 µM) 102% | viability, T/C (second compound 0.1 µM, first compound 0.001 µM) 106% | viability, T/C (second compound 0.1 µM, first compound 0.00316 µM) 103% | viability, T/C (second compound 0.1 µM, first compound 0.01 µM) 85.5% | viability, T/C [1] 98% | viability, T/C [2] 87.7% | viability, T/C (second compound 0.316 µM, first compound 0.000316 µM) 100% | viability, T/C (second compound 0.316 µM, first compound 0.001 µM) 98.8% | viability, T/C (second compound 0.316 µM, first compound 0.00316 µM) 102% | viability, T/C (second compound 0.316 µM, first compound 0.01 µM) 90.2% | viability, T/C [3] 90.4% | viability, T/C [4] 84.8% | viability, T/C (second compound 1 µM, first compound 0.000316 µM) 91% | viability, T/C (second compound 1 µM, first compound 0.001 µM) 93.3% | viability, T/C (second compound 1 µM, first compound 0.00316 µM) 102% | viability, T/C (second compound 1 µM, first compound 0.01 µM) 83% | viability, T/C [5] 85.4% | viability, T/C [6] 81.1% | viability, T/C (second compound 3.16 µM, first compound 0.000316 µM) 85% | viability, T/C (second compound 3.16 µM, first compound 0.001 µM) 89.3% | viability, T/C (second compound 3.16 µM, first compound 0.00316 µM) 92.7% | viability, T/C (second compound 3.16 µM, first compound 0.01 µM) 81.3% | viability, T/C [7] 79.4% | viability, T/C [8] 76.3% | viability, T/C (second compound 10 µM, first compound 0.000316 µM) 72.7% | viability, T/C (second compound 10 µM, first compound 0.001 µM) 74% | viability, T/C (second compound 10 µM, first compound 0.00316 µM) 75% | viability, T/C (second compound 10 µM, first compound 0.01 µM) 76.8% | viability, T/C [9] 70.8% | viability, T/C [10] 66.5%

O=C(c1cc(Cc2n[nH]c(=O)c3ccccc23)ccc1F)N1CCN(C(=O)C2CC2)CC1 + Cc1c(S(C)(=O)=O)c(-c2cc(F)cc(N3CCN(c4ccc(NS(=O)(=O)c5ccc(NC(CCN6CCC(C(=O)OCCCP(=O)(O)O)CC6)CSc6ccccc6)c(S(=O)(=O)C(F)(F)F)c5)cc4)CC3)c2)c(-c2ccc(Cl)cc2)n1C(C)C
inactive: viability, T/C [1] 101% | viability, T/C [2] 110% | viability, T/C (second compound 0.1 µM, first compound 0.316 µM) 98.4% | viability, T/C (second compound 0.1 µM, first compound 1 µM) 92.6% | viability, T/C (second compound 0.1 µM, first compound 3.16 µM) 98.1% | viability, T/C (second compound 0.1 µM, first compound 10 µM) 90.9% | viability, T/C [3] 86% | viability, T/C [4] 102% | viability, T/C (second compound 0.316 µM, first compound 0.316 µM) 109% | viability, T/C (second compound 0.316 µM, first compound 1 µM) 92.5% | viability, T/C (second compound 0.316 µM, first compound 3.16 µM) 99% | viability, T/C (second compound 0.316 µM, first compound 10 µM) 90.3% | viability, T/C [5] 91.3% | viability, T/C [6] 101% | viability, T/C (second compound 1 µM, first compound 0.316 µM) 105% | viability, T/C (second compound 1 µM, first compound 1 µM) 93% | viability, T/C (second compound 1 µM, first compound 3.16 µM) 92.4% | viability, T/C (second compound 1 µM, first compound 10 µM) 92.8% | viability, T/C [7] 93% | viability, T/C [8] 101% | viability, T/C (second compound 3.16 µM, first compound 0.316 µM) 96.1% | viability, T/C (second compound 3.16 µM, first compound 1 µM) 80% | viability, T/C (second compound 3.16 µM, first compound 3.16 µM) 98.4% | viability, T/C (second compound 3.16 µM, first compound 10 µM) 86.1% | viability, T/C [9] 71.6% | viability, T/C [10] 73.6% | viability, T/C (second compound 10 µM, first compound 0.316 µM) 92.2% | viability, T/C (second compound 10 µM, first compound 1 µM) 84.1% | viability, T/C (second compound 10 µM, first compound 3.16 µM) 76.5% | viability, T/C (second compound 10 µM, first compound 10 µM) 72.7%
> 10 µM: IC50 (second compound 0.1 µM) | IC50 (second compound 0.316 µM) | IC50 (second compound 1 µM) | IC50 (second compound 3.16 µM) | IC50 (second compound 10 µM)
